Assay results reported in US20110112100A1, “Hepatitis C Virus Inhibitors” (priority 2009, published 2011).
Structures can show the parent of a compound that is named as a salt. Where two headings read alike, the source gives them in different places.

Columns and labels:
1a-H77 replicon cells = experiment: HCV 1a replicon inhibitory activity (Renilla luciferase); type: cell-based, hepatitis C virus; settings: read-out: IC50 value (95% Confidence Intervals) pM Replicon 1A assay
Summary of the method: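 Replicon cells in DMEM + 10% FCS incubated 48 hours at 37° C., 5% CO2 with 1-in-3 serial dilutions of compound prepared in DMSO. Replication read as Renilla luciferase luminescence after lysis. EC50 taken from log concentration-response curves.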

1b (con1) replicon cells = experiment: HCV 1b replicon inhibitory activity (luciferase, Britelite Plus); type: cell-based, hepatitis C virus; settings: read-out: IC50 value (95% Confidence Intervals) pM Replicon 1B assay
Summary of the method: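 1b (con1) luciferase replicon cells in DMEM + 10% FCS were exposed to 1-in-3 DMSO compound dilutions for 48 h at 37° C, 5% CO2. Luminescence was read 1-15 min after Britelite Plus addition; EC50 came from log concentration-response curves.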

[1] = geometric mean, 95% confidence intervals in parentheses, 48 hours, medium with 10% FCS

SMILES	IC50 (1a-H77 replicon cells; Hepatitis C virus, 48 h)	IC50 (1b (con1) replicon cells; Hepatitis C virus, 48 h)	IC50 (1a-H77 replicon cells; [1])	IC50 (1b (con1) replicon cells; [1])
COC(=O)N[C@H](C(=O)N1CCC[C@H]1c1nc(-c2ccc(-c3cnc4cc(-c5cnc([C@@H]6CCCN6C(=O)[C@H](NC(=O)OC)C(C)C)[nH]5)ccc4n3)cc2)c[nH]1)C(C)C [Example 61, Methyl {(2S)-1-[(2S)-2-{4-[4-(6-{2-[(2S)-1-{(2R)-2-[(methoxycarbonyl)amino]-3-methylbutanoyl}pyrrolidin-2-yl]-1H-imidazol-5-yl}quinoxalin-2-yl)phenyl]-1H-imidazol-2-yl}pyrrolidin-1-yl]-3-methyl-1-oxobutan-2-yl}carbamate trifluoroacetic acid salt]	6400 pM	83.5 pM		
COC(=O)N[C@H](C(=O)N1CCC[C@H]1c1nc(-c2ccc(-c3cnc4cc(-c5cnc([C@@H]6CCCN6C(=O)[C@@H](Cc6ccccc6)NC(=O)OC)[nH]5)ccc4n3)cc2)c[nH]1)C(C)C [Example 62, Methyl {(2R)-1-[(2S)-2-{5-[2-(4-{2-[(2S)-1-{(2S)-2-[(methoxycarbonyl)amino]-3-methylbutanoyl}pyrrolidin-2-yl]-1H-imidazol-4-yl}phenyl)quinoxalin-6-yl]-1H-imidazol-2-yl}pyrrolidin-1-yl]-1-oxo-3-phenylpropan-2-yl}carbamate trifluoroacetic acid salt]	2570 pM	44.1 pM		
COC(=O)N[C@H](C(=O)N1CCC[C@H]1c1nc(-c2ccc(-c3cnc4cc(-c5cnc([C@@H]6CCCN6C(=O)[C@@H](COCc6ccccc6)NC(=O)OC)[nH]5)ccc4n3)cc2)c[nH]1)C(C)C [Example 63, Methyl {(2S)-1-[(2S)-2-{4-[4-(6-{2-[(2S)-1-{(2R)-3-(benzyloxy)-2-[(methoxycarbonyl)amino]propanoyl}pyrrolidin-2-yl]-1H-imidazol-5-yl}quinoxalin-2-yl)phenyl]-1H-imidazol-2-yl}pyrrolidin-1-yl]-3-methyl-1-oxobutan-2-yl}carbamate trifluoroacetic acid salt]	4770 pM	400 pM		
COC(=O)N[C@@H](CO)C(=O)N1CCC[C@H]1c1ncc(-c2ccc3nc(-c4ccc(-c5c[nH]c([C@@H]6CCCN6C(=O)[C@@H](NC(=O)OC)C(C)C)n5)cc4)cnc3c2)[nH]1 [Example 64, Methyl {(2S)-1-[(2S)-2-{4-[4-(6-{2-[(2S)-1-{(2S)-3-hydroxy-2-[(methoxycarbonyl)amino]propanoyl}pyrrolidin-2-yl]-1H-imidazol-5-yl}quinoxalin-2-yl)phenyl]-1H-imidazol-2-yl}pyrrolidin-1-yl]-3-methyl-1-oxobutan-2-yl}carbamate trifluoroacetic acid salt]	44.9 pM	42 pM		
COC(=O)NCC(=O)N1CCC[C@H]1c1ncc(-c2ccc3nc(-c4ccc(-c5c[nH]c([C@@H]6CCCN6C(=O)[C@@H](NC(=O)OC)C(C)C)n5)cc4)cnc3c2)[nH]1 [Example 65, Methyl {2-[(2S)-2-[5-[2-(4-{2-[(2S)-1-{(2S)-2-[(methoxycarbonyl)amino]-3-methylbutanoyl}pyrrolidin-2-yl]-1H-imidazol-4-yl}phenyl)quinoxalin-6-yl]-1H-imidazol-2-yl}pyrrolidin-1-yl]-2-oxoethyl)carbamate trifluoroacetic acid salt]	700 pM	54.5 pM		
COC(=O)NC(C(=O)N1CCC[C@H]1c1ncc(-c2ccc3nc(-c4ccc(-c5c[nH]c([C@@H]6CCCN6C(=O)[C@@H](NC(=O)OC)C(C)C)n5)cc4)cnc3c2)[nH]1)C1CCCC1 (stereo partly drawn) [Example 66, Methyl {(2S)-1-[(2S)-2-{4-[4-(6-{2-[(2S)-1-{cyclopentyl[(methoxycarbonyl)amino]acetyl}pyrrolidin-2-yl]-1H-imidazol-5-yl}quinoxalin-2-yl)phenyl]-1H-imidazol-2-yl}pyrrolidin-1-yl]-3-methyl-1-oxobutan-2-yl} carbamate trifluoroacetic acid salt]			1720 pM	21.7 pM
COC(=O)N[C@@H](CC(C)C)C(=O)N1CCC[C@H]1c1ncc(-c2ccc3nc(-c4ccc(-c5c[nH]c([C@@H]6CCCN6C(=O)[C@@H](NC(=O)OC)C(C)C)n5)cc4)cnc3c2)[nH]1 [Example 68, Methyl {(2S)-1-[(2S)-2-{5-[2-(4-{2-[(2S)-1-{(2S)-2-[(methoxycarobnyl)amino]-3-methylbutanoyl}pyrrolidin-2-yl]-1H-imidazol-4-yl}phenyl)quinoxalin-6-yl]-1H-imidazol-2-yl}pyrrolidin-1-yl]-4-methyl-1-oxopentan-2-yl}carbamate trifluoroacetic acid salt]			23.2 pM	8.15 pM
COC(=O)N[C@H](C(=O)N1CCC[C@H]1c1nc(-c2ccc(-c3cnc4cc(-c5cnc([C@@H]6CCCN6C(=O)[C@H](NC(=O)OC)[C@@H](C)OC(C)(C)C)[nH]5)ccc4n3)cc2)c[nH]1)C(C)C [Example 75, Methyl {(2S)-1-[(2S)-2-{4-[4-(6-{2-[(2S)-1-{(2R,3R)-3-tert-butoxy-2-[(methoxycarbonyl)amino]butanoyl}pyrrolidin-2-yl]-1H-imidazol-5-yl}quinoxalin-2-yl)phenyl]-1H-imidazol-2-yl}pyrrolidin-1-yl]-3-methyl-1-oxobutan-2-yl}carbamate trifluoroacetic acid salt]	4190 pM	143 pM		
COC(=O)N[C@H](C(=O)N1CCC[C@H]1c1nc(-c2ccc(-c3cnc4cc(-c5cnc([C@@H]6CCCN6C(=O)[C@@H](COC(C)(C)C)NC(=O)OC)[nH]5)ccc4n3)cc2)c[nH]1)C(C)C [Example 76, Methyl {(2S)-1-[(2S)-2-{4-[4-(6-{2-[(2S)-1-{(2R)-3-tert-butoxy-2-[(methoxycarbonyl)amino]propanoyl}pyrrolidin-2-yl]-1H-imidazol-5-yl]quinoxalin-2-yl)phenyl]-1H-imidazol-2-yl}pyrrolidin-1-yl]-3-methyl-1-oxobutan-2-yl}carbamate trifluoroacetic acid salt]	157 pM	58.8 pM		
CCC[C@@H](NC(=O)OC)C(=O)N1CCC[C@H]1c1ncc(-c2ccc3nc(-c4ccc(-c5c[nH]c([C@@H]6CCCN6C(=O)[C@@H](NC(=O)OC)C(C)C)n5)cc4)cnc3c2)[nH]1 [Example 77, Methyl {(2R)-1-[(2S)-2-{5-[2-(4-{2-[(2S)-1-{(2S)-2-[(methoxycarbonyl)amino]-3-methylbutanoyl}pyrrolidin-2-yl]-1H-imidazol-4-yl}phenyl)quinoxalin-6-yl]-1H-imidazol-2-yl}pyrrolidin-1-yl]-1-oxopentan-2-yl}carbamate trifluoroacetic acid salt]	186 pM	31.4 pM		
CCCC[C@@H](NC(=O)OC)C(=O)N1CCC[C@H]1c1ncc(-c2ccc3nc(-c4ccc(-c5c[nH]c([C@@H]6CCCN6C(=O)[C@@H](NC(=O)OC)C(C)C)n5)cc4)cnc3c2)[nH]1 [Example 78, Methyl {(2R)-1-[(2S)-2-{5-[2-(4-{2-[(2S)-1-{(2S)-2-[(methoxycarbonyl)amino]-3-methylbutanoyl}pyrrolidin-2-yl]-1H-imidazol-4-yl}phenyl)quinoxalin-6-yl]-1H-imidazol-2-yl}pyrrolidin-1-yl]-1-oxohexan-2-yl}carbamate trifluoroacetic acid salt]	443 pM	45.5 pM		
